Substitutions are numbered along the chain they refer to.
Experiments:
GLP-2R K414^7.35A = target: T1, GLP-2R K414^7.35A (Homo sapiens, UniProt O95838, K414A); test: radioligand competition binding, K414^7.35A; parameters: WT (1–553); expressed in transfected cells; host or cells: COS-7; settings: COS-7, K414^7.35 A; [^125I]GLP-2(1–33, M10Y) 10–15 pM, 4 h, 4 °C; mean ± SEM, n ≥ 3 in duplicate
T1 sequence (O95838 1-553 K414A): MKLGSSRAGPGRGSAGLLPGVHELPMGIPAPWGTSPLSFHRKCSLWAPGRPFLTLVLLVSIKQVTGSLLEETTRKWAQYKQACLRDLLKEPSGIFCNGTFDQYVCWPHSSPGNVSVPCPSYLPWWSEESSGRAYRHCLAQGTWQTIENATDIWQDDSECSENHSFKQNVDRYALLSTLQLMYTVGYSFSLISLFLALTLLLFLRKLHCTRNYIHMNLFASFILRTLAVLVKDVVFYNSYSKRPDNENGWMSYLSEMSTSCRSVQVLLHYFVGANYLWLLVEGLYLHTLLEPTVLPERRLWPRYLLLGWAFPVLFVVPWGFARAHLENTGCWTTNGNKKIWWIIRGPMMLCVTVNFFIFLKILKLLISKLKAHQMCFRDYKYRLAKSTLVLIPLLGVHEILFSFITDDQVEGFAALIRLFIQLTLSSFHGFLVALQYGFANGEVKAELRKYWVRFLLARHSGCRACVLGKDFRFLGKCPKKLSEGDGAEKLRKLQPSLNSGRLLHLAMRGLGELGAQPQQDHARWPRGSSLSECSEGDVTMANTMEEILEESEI
Method: (§1) A stepwise oxidation reaction was performed by addition of 6 aliquots of 5 µL ChloramineT (30 µL/mL) with a 1-min interval during constant stirring. The reaction was terminated by the addition of 400 µL phase A (0.1% trifluoracetic acid) before being fractionated into 1 mL volume by reverse-phase high-performance liquid chromatography (RP-HPLC, Waters 600 SimiPrep system) on a C18 column. The iodinated protein was […] by increasing concentrations of phase B (Acetonitrile + 0.1% TFA) and tested for competitive binding ability.
(§2) One day before transfection, the COS-7 cells were seeded in 75 cm^2 culture flasks (3 million cells/flask) in DMEM, containing 3.9 g/L NaHCO3 and supplemented with 10% FBS, 1% L-glutamine, 180 units/mL penicillin and 45 µg/mL streptomycin. After an overnight culture at 37 °C, 10% CO2 and 95% air humidity, the cells were transiently transfected with different GLP-2R constructs or pcDNA3.1 vector as previously described.[52] Following 24-h incubation, the cells were transferred to Costa® microtiter plates (150,000 cells/well, PerkinElmer) to achieve a 5%–10% specific binding. […] The cells were then washed twice in binding buffer (4 °C), lysed and counted for radioactivity using a Wallac Gamma Counter (PerkinElmer).

GLP-2R Y186^1.47A = target: T2, GLP-2R Y186^1.47A (Homo sapiens, UniProt O95838, Y186A); test: radioligand competition binding, Y186^1.47A; parameters: WT (1–553); expressed in transfected cells; settings: COS-7, Y186^1.47A; [^125I]GLP-2(1–33, M10Y) 10–15 pM, 4 h, 4 °C; n ≥ 3 in duplicate
T2 sequence (O95838 1-553 Y186A): T1 sequence (O95838 1-553 K414A) with Y186A, A414K
Method: as §1, §2

GLP-2R R344^5.40A = target: T3, GLP-2R R344^5.40A (Homo sapiens, UniProt O95838, R344A); test: radioligand competition binding, R344^5.40A; parameters: WT (1–553); expressed in transfected cells; host or cells: COS-7; settings: COS-7, R344^5.40A; [^125I]GLP-2(1–33, M10Y) 10–15 pM, 4 h, 4 °C; mean ± SEM, n ≥ 3 in duplicate
T3 sequence (O95838 1-553 R344A): T1 sequence (O95838 1-553 K414A) with R344A, A414K
Method: as §1, §2

| SMILES | % Binding of WT (GLP-2R K414^7.35A) | % Binding of WT (GLP-2R Y186^1.47A) | % Binding of WT (GLP-2R R344^5.40A) |
| --- | --- | --- | --- |
| CC[C@H](C)[C@H](NC(=O)[C@H](Cc1ccccc1)NC(=O)[C@H](CC(=O)O)NC(=O)[C@H](CCCNC(=N)N)NC(=O)[C@H](C)NC(=O)[C@H](C)NC(=O)[C@H](CC(C)C)NC(=O)[C@H](CC(N)=O)NC(=O)[C@H](CC(=O)O)NC(=O)[C@H](CC(C)C)NC(=O)[C@@H](NC(=O)[C@@H](NC(=O)[C@H](CC(N)=O)NC(=O)[C@H](CCSC)NC(=O)[C@H](CCC(=O)O)NC(=O)[C@H](CC(=O)O)NC(=O)[C@H](CO)NC(=O)[C@H](Cc1ccccc1)NC(=O)[C@H](CO)NC(=O)CNC(=O)[C@H](CC(=O)O)NC(=O)[C@H](C)NC(=O)[C@@H](N)Cc1c[nH]cn1)[C@@H](C)O)[C@@H](C)CC)C(=O)N[C@@H](CC(N)=O)C(=O)N[C@@H](Cc1c[nH]c2ccccc12)C(=O)N[C@@H](CC(C)C)C(=O)N[C@H](C(=O)N[C@@H](CCC(N)=O)C(=O)N[C@H](C(=O)N[C@@H](CCCCN)C(=O)N[C@H](C(=O)N[C@H](C(=O)N[C@@H](CC(=O)O)C(=O)O)[C@@H](C)O)[C@@H](C)CC)[C@@H](C)O)[C@@H](C)CC [Human GLP-2 (1–33)] | 15.2 ± 1.0 % | N.B. | 5.0 ± 0.8 % |
| CC[C@H](C)[C@H](NC(=O)[C@H](Cc1ccccc1)NC(=O)[C@H](CC(=O)O)NC(=O)[C@H](CCCNC(=N)N)NC(=O)[C@H](C)NC(=O)[C@H](C)NC(=O)[C@H](CC(C)C)NC(=O)[C@H](CC(N)=O)NC(=O)[C@H](CC(=O)O)NC(=O)[C@H](CC(C)C)NC(=O)[C@@H](NC(=O)[C@@H](NC(=O)[C@H](CC(N)=O)NC(=O)[C@H](CCSC)NC(=O)[C@H](CCC(=O)O)NC(=O)[C@H](CC(=O)O)NC(=O)[C@H](CO)NC(=O)[C@H](Cc1ccccc1)NC(=O)[C@H](CO)NC(=O)CNC(=O)[C@H](CC(=O)O)NC(=O)CNC(=O)[C@@H](N)Cc1c[nH]cn1)[C@@H](C)O)[C@@H](C)CC)C(=O)N[C@@H](CC(N)=O)C(=O)N[C@@H](Cc1c[nH]c2ccccc12)C(=O)N[C@@H](CC(C)C)C(=O)N[C@H](C(=O)N[C@@H](CCC(N)=O)C(=O)N[C@H](C(=O)N[C@@H](CCCCN)C(=O)N[C@H](C(=O)N[C@H](C(=O)N[C@@H](CC(=O)O)C(=O)O)[C@@H](C)O)[C@@H](C)CC)[C@@H](C)O)[C@@H](C)CC [Teduglutide] | 13.9 ± 0.8 % | N.B. | 3.5 ± 0.8 % |

From article PMC7785020, “A unique hormonal recognition feature of the human glucagon-like peptide-2 receptor” (Cell Research, 2020)
